Test results taken from US10610514B2, “Composition comprising compound inhibiting interactions of MBD2 and P66α for anti-metastasis and prevention and treatment of cancer disease” (Industry-University Cooperation Foundation Hanyang …, priority 2016, dated 2020).
Like-named read-outs stand apart in the source and are kept apart here.

Assays:
[1] = system: various cancer cell lines; test: MTT assay cell viability, all cancer cell lines; assay type: cell-based
Procedure: (§1) Lymphoid leukemia cell lines (Raji, Molt4, IM9, Jurkat, CCRF-CEM, and Daudi), leukemia cell lines (KCL22, MEL, THP-1, HL60, HEL, U937, KG-1, and K562), and solid tumor cell lines (HCT116 colorectal cancer cell line, BEAS2B lung epithelial cell line, 293T fetus kidney epithelial cell line, Hep3B liver cancer cell line, MCF7 and MDA-MB-231 breast cancer cell lines, MCF10A breast epithelial cell line, and U373MG brain tumor cell line) were treated with a compound at different concentrations (0, 1, 10, 100, 1,000, and 10,000 μM), cultured for 4 days, and subjected to MTT assay every 24 hours to measure cell viability. 48 hours after the treatment with the compound, a morphological change of the cells was observed, and cell images were taken. IC50 values caused by the treatment with each compound were calculated using the Graph Prism Pad 6 program.

[2] = system: target gene expression of the CP2c transcription factor complex; test: Luc reporter assay, GATA1 enhancer, 293T cells transduced with CBP complex protein overexpression vectors; assay type: cell-based
Procedure: Therefore, Luc reporter assay was carried out to analyze whether a decrease in the target gene expression of the CP2c transcription factor complex due to MBD2 or p66α overexpression is restored by the treatment with a compound for inhibiting the interaction between the MBD2 and p66α selected in the previous step (FIGS. 2A and 2B). Here, as a CP2c transcription factor target sequence that controls Luc reporter gene expression, a GATA1 enhancer was used, and 293T cells were transduced with various combinations of CBP complex protein overexpression vectors and then used for analysis.

[3] = system: MDA-MB-231, HCT116, MEL and HL60 cell lines; test: In vitro cancer cell migration and invasion, Trans-well insert; assay type: cell-based; settings: 10 μM, in comparison with controls, all cell lines
Procedure: Accordingly, to confirm whether EMT and metastasis are inhibited by the treatment with the compounds of Formulas 1 and 2, in vitro cancer cell migration and invasion abilities were analyzed, and the result is shown in FIGS. 3A and 3B below.

[4] = system: HCT116 and MDA-MB-231 cell lines; test: Western blotting of EMT-associated marker proteins; assay type: cell-based; settings: 10 μM, 48 hours
Text: Therefore, the compounds of Formulas 1 and 2 according to the present invention may be excellent leading materials in the development of therapeutic agents for metastasis.

MEL cells = test: Western blotting of cell cycle- and apoptosis-associated marker proteins in MEL cells; assay type: cell-based, murine
Text: In addition, as a western blotting result to show the change in the expression of cell cycle-associated marker proteins according to the concentration and time of the treated compound of Formula 1, it was confirmed that all activities of cyclin/CDK controlling the checkpoints of the cell cycle were decreased. Therefore, referring to FIG. 13, it was seen that overall progression of the cell cycle was inhibited by the treatment with the compound of Formula 1, and aneuploidy and cell death were induced.

[5] = system: lymphoid leukemia cell lines (Raji, Molt4, IM9, Jurkat, CCRF-CEM, and Daudi); test: MTT assay cell viability, lymphoid leukemia cell lines; assay type: cell-based; settings: average
Procedure: as §1

MEL cell line [6] = test: Leukemia cell line-implanted animal model (MEL cell line intravenously injected into immunodeficient mice); assay type: in vivo
Text: The result is shown in FIGS. 9A, 9B, 9C, 9D, 9E, 9F, 9G, 9H, 9I and 9J below.
However, a white blood cell level was reduced due to the treatment with the compound at a slightly higher concentration, but the histological characteristics of the major organs as well as the overall hematological characteristics were normal (FIGS. 9D and 9E).
Meanwhile, to confirm whether the compound of Formula 1 can treat tumors generated in the animal models, the MEL cell line was intravenously injected, after 7 days, the compound of Formula 1 was intravenously injected five times at intervals of three days, and then, on the 21th day, the mice were sacrificed to be subjected to analysis by the above-described method (FIG. 9F).

[7] = system: solid tumor cell lines (HCT116, BEAS2B, 293T, Hep3B, MCF7, MDA-MB-231, MCF10A, U373MG); test: MTT assay cell viability, solid tumor cell lines; assay type: cell-based; settings: average
Procedure: as §1

[8] = system: leukemia cell lines (KCL22, MEL, THP-1, HL60, HEL, U937, KG-1, and K562); test: MTT assay cell viability, leukemia cell lines; assay type: cell-based
Procedure: as §1

MEL cell line [9] = test: Cell cycle analysis by FACS and karyotype analysis of MEL cells; assay type: cell-based, murine
[10] = 16.5 μM and 40 μM, western blotting over time
[11] = dosing started 7 days after MEL injection, day 21

Structure (SMILES): CC(C)(C)OC(=O)N1CC[C@@H](CC(=O)CN)C1 [Formula 2]
- IC50 values (in words) ([1]; uniform in all cancer cell lines): slightly higher IC50 values
- growth and cell death of cell lines ([1]; various cancer cell lines): effects of inhibiting the growth and inducing cell death
- restoration of the inhibition of target gene expression by MBD2 overexpression [2]: restored
- restoration of the inhibition of target gene expression by p66α overexpression [2]: did not restore
- effect on migration and invasion abilities [3]: significant inhibitory effect
- expression of epithelial cell marker proteins (β-catenin, E-cadherin) [4]: decreased
- expression of mesenchymal cell marker proteins (Snail, slug, N-cadherin) [4]: significantly decreased

Structure (SMILES): NCC(=O)NC[C@H]1COc2ccccc2O1 [Formula 1]
- apoptosis-associated caspases (MEL cells; [10]): activated
- expression of the apoptosis inhibition marker (MEL cells; [10]): decreased
- expression of the apoptosis promotion marker (MEL cells; [10]): increased
- activities of cyclin/CDK controlling the checkpoints of the cell cycle (MEL cells; western blotting, by concentration and time): decreased
- IC50 [5]: 213 µM
- side effects in normal tissue/blood (MEL cell line [6]; MEL-implanted mice): no side effects
- histological characteristics of the major organs and overall hematological characteristics (MEL cell line [6]; dosing from MEL injection, day 16): normal
- histological characteristics of the major organs and overall hematological characteristics (MEL cell line [6]; [11]): normal
- tumor cells in the blood, spleen and liver (MEL cell line [6]; [11]): no tumor cells
- splenomegaly caused by the MEL cells (MEL cell line [6]; dosing started 7 days after MEL injection, i.v. five times at intervals of three days, day 21, concentration-dependent): disappeared
- splenomegaly caused by the MEL cells (MEL cell line [6]; i.v. 12.2, 24.4, 48.8 μg/Kg five times at intervals of three days from MEL injection, day 16, concentration-dependent): disappeared
- tumor cells in the blood, spleen and liver (MEL cell line [6]; i.v. five times at intervals of three days from MEL injection, day 16): no tumor cells
- white blood cell level (MEL cell line [6]; slightly higher concentration, day 16): reduced
- restoration of the inhibition of target gene expression by MBD2 overexpression [2]: did not restore
- restoration of the inhibition of target gene expression by p66α overexpression [2]: restored
- IC50 [7]: 1780 µM
- effect on migration and invasion abilities [3]: significant inhibitory effect
- IC50 ([8]; average, read-out: IC50 average): 50 µM
- IC50 ([8]; range over cell lines, read-out: IC50 values): 6 to 218 µM
- G0/G1 group (MEL cell line [9]; FACS): reduction
- G2/M group (MEL cell line [9]; FACS): increase
- aneuploidy cell group (MEL cell line [9]; FACS): significant increases
- subG1 (cell group dying by apoptosis) (MEL cell line [9]; FACS): significant increases
- aneuploidy (MEL cell line [9]; FACS after synchronization at G1/S by thymidine double block): remarkably induced
- chromosomes (karyotype analysis) (MEL cell line [9]; karyotype analysis): abnormally increased
- expression of epithelial cell marker proteins (β-catenin, E-cadherin) [4]: decreased
- expression of mesenchymal cell marker proteins (Snail, slug, N-cadherin) [4]: significantly decreased
